Some targets named below: Cytochrome P450 2D6 (Homo sapiens, UniProt P10635); Cytochrome P450 3A4 (Homo sapiens, UniProt P08684); Cytochrome P450 2C9 (Homo sapiens, UniProt P11712).
The target in test [1] is T1, Heat shock factor protein 1 (Mus musculus, UniProt P38532).
T1 sequence (P38532 whole entry): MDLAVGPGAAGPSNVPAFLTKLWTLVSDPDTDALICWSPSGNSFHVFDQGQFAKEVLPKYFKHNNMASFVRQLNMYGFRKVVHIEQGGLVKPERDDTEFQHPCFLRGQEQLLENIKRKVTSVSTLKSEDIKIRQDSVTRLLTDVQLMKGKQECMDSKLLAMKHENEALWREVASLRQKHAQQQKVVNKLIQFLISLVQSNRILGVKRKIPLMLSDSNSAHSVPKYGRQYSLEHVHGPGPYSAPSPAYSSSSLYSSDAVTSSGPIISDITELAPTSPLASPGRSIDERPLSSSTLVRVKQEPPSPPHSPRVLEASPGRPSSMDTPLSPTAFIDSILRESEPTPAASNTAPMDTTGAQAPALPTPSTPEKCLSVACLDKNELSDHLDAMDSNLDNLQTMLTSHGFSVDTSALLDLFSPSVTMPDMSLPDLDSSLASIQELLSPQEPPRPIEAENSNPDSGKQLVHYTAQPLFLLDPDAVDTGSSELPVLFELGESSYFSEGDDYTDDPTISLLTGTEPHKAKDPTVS
Briefly: HSF1 potentiators in luciferase reporter cells, confirmation, cell-based, NIH3T3, luminescence, dose retest (AID 435004).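 Note: stress induced by proteasome inhibitor MG132 added 30 min after compound; luciferase reporter driven by HSF1 response element in NIH3T3 cells; actives raise luminescence as potentiators of the MG132 stress response.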 Type of test: functional.

A short description of test [2]: Luminescence Cell-Based Dose Confirmation HTS to Identify Activators of 5'UTR Stem-Loop Driven Alpha-Synuclein mRNA Translation in H4 Neuroglioblastoma Cells. [Related pubchem assays: 1829 (Project Summary), 1814 (Primary HTS)]. Type of test: functional.
In another test the test system is H4. Briefly: Luminescence Cell-Based Dose Response HTS to Identify Activators of 5'UTR Stem-Loop Driven Prion Protein mRNA Translation in H4 Neuroglioblastoma Cells. [Related pubchem assays: 1829 (Project Summary), 1814 (Primary HTS)]. Particulars: Homo sapiens. Type of test: functional.
A short description of test [3]: Luminescence Cell-Based Dose Response HTS to Identify Activators of Luciferase Translation or Activity in H4 […] Cells. [Related pubchem assays: 1829 (Project Summary), 1814 (Primary HTS)]. Type of test: functional.
For test [4], the target named is T1, Heat shock factor protein 1. Briefly: inhibition of MG132-induced HSE-luciferase signal, confirmation, cell-based, NIH3T3, luminescence, dose retest (AID 2382).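 Note: NIH3T3 fibroblasts with HSF1-driven luciferase reporter stressed by proteasome inhibitor MG132; luminescence from HSF1-driven luciferase expression after 8 hours of MG132 stress.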 Type of test: functional.
The next test addresses T2, Streptokinase A (Streptococcus pyogenes serotype M1, UniProt P10520).
T2 sequence (P10520 whole entry): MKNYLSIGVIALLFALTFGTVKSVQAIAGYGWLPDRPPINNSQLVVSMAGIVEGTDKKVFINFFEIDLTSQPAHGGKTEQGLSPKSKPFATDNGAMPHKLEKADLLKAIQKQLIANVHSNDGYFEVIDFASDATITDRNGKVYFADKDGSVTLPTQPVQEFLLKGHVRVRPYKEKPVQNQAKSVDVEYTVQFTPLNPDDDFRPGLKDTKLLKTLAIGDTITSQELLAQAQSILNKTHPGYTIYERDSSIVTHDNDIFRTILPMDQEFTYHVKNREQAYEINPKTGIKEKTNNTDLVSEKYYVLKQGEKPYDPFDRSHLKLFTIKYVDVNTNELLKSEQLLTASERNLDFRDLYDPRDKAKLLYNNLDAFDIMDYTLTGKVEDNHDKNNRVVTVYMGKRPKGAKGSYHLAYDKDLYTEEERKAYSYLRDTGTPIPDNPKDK
Briefly: S. pyogenes streptokinase expression inhibitors, potency, dose response, plasminogen activation absorbance, OD405 (AID 1914).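 Note: secreted streptokinase activity via plasminogen activation per viability signal from cell pellet.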 Type of test: functional, Streptococcus pyogenes M1 GAS.

A further test concerns Streptococcus. Briefly: Group A Streptococcus viability loss, dose response, counter-screen for streptokinase expression inhibitor project, luminescence, BacTiterGlo (AID 1915).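 Note: potency for reduction of bacterial viability or growth.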 Type of test: functional, organism-based. (In general: The purpose of a counterscreen is to sort out artefacts and off-target activity.)
Test [5] concerns Streptococcus sp. 'group A'. Briefly: growth inhibition of control SK(-) GAS strain, dose response, counter-screen for streptokinase expression inhibitor project, luminescence, kanamycin, BacTiterGlo, confirmation (AID 1900). Type of test: functional, organism-based.
The target in the next test is T3, Protein skinhead-1 (Caenorhabditis elegans, UniProt P34707).
T3 sequence (P34707 whole entry): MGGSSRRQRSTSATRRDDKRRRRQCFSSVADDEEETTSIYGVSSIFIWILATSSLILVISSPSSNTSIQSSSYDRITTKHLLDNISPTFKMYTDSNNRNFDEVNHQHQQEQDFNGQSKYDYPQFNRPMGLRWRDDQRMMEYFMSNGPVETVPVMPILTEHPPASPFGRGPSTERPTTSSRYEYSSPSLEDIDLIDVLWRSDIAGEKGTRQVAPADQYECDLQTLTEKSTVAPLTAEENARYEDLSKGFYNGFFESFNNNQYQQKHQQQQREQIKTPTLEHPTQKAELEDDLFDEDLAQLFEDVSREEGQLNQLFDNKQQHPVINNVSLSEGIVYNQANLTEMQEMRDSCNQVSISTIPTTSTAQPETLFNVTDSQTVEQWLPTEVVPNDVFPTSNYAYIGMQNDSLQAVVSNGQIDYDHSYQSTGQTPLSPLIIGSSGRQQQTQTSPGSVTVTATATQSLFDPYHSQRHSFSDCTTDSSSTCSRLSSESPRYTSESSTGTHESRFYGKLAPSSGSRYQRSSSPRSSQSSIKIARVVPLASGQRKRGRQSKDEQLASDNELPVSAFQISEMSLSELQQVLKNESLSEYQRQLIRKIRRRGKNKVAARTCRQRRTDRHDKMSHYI
Type of test: functional.

A short description of test [6]: NIH-3T3 fibroblast cytotoxicity, dose response, cytotoxicity control, cell-based, fluorescence, Alamar Blue, secondary assay (AID 2327).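 Note: NIH-3T3 mouse fibroblasts cultured with fluconazole at 8 µg/mL.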 Type of test: functional. (In general: Alamar Blue is a resazurin reagent that responds to reducing activity.)
In a further test the target is T4, Cytochrome P450 1A2 (Homo sapiens, UniProt P05177).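 Note: PubChem cytochrome P450 panel assay, CYP1A2 panel member.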
T4 sequence (P05177 whole entry): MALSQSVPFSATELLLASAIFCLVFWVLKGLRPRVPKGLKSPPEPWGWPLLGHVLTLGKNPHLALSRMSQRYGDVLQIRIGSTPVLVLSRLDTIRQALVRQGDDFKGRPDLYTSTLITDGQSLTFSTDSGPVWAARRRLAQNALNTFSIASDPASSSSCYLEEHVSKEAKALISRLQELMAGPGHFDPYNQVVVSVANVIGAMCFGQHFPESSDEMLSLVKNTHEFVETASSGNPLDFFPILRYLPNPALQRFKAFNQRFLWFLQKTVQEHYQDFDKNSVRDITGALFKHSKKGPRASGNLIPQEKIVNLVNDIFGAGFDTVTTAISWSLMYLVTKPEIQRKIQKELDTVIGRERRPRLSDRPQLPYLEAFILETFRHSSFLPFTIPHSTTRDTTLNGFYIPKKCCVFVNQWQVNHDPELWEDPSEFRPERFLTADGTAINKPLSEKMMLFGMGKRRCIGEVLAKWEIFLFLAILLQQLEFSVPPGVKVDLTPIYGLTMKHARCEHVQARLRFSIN

Another test concerns the target Paired box protein Pax-8 (Homo sapiens, UniProt Q06710). As to the kind of experiment: inhibitors of PAX8-driven TPO luciferase reporter, dose response, RMG-I cells, cherry-pick (AID 687027).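 Note: luciferase reporter driven by Pax8 target thyroperoxidase promoter measured by SteadyGlo luminescence.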 Type of test: functional, cell-based. For orientation: Reporter assays use an easily measured gene product as a stand-in for the process of interest.
Test [7] in a line: HEp-2 cell cytotoxicity, dose response, cytotoxicity control for RSV inhibitor project, HTS (AID 2410). Type of test: functional. Particulars: human respiratory syncytial virus.

Each structure is given as a SMILES string. “And” between values parts separate entries of the source, which are not always exact repeats. Identical values can stand only once. The source made the active and inactive calls. Cut-off read from the data, not from the text of the source, for most assays here: actives have a measured EC50 and inactives only a lower limit. Bounds are passed on as bounds.

Cytochrome P450 2D6, sequence (P10635 whole entry): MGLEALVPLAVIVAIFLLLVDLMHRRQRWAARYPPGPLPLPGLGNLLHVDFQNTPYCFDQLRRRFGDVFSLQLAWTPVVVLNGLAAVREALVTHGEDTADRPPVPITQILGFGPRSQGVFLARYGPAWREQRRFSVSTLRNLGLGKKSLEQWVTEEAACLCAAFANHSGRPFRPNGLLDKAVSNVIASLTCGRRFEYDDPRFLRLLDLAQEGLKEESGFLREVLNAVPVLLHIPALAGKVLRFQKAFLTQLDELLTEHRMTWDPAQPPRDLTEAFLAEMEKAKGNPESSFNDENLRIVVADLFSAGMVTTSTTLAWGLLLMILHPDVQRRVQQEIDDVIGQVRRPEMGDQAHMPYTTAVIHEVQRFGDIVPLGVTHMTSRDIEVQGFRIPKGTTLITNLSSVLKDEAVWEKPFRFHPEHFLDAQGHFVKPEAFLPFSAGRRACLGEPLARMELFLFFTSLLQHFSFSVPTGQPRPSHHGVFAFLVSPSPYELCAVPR
Paired box protein Pax-8, sequence (Q06710 whole entry): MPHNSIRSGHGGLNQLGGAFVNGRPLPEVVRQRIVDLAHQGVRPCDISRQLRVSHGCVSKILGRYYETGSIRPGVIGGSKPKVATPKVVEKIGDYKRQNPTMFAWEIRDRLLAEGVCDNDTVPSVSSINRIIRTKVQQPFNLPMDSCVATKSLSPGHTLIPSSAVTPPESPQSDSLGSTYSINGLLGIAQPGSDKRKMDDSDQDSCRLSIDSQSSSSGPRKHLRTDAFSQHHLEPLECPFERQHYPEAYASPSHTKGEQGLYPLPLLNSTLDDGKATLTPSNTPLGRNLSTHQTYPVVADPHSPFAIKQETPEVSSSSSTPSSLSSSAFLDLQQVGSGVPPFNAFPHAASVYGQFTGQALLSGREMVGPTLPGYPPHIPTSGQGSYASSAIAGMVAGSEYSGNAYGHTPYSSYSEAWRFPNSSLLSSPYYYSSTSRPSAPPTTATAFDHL
Cytochrome P450 3A4, sequence (P08684 whole entry): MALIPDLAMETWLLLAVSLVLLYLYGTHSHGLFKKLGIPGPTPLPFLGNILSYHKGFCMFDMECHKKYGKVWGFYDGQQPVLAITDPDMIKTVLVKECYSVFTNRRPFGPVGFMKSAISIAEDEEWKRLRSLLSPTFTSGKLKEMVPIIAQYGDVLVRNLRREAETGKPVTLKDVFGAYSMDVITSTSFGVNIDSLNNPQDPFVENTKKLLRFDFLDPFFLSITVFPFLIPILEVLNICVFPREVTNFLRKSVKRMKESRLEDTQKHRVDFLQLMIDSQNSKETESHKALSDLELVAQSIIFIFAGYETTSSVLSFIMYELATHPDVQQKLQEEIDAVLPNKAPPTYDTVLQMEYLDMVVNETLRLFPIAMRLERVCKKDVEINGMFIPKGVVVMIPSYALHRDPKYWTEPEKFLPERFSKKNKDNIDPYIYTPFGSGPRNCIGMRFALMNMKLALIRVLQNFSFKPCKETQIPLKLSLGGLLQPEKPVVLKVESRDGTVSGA
Cytochrome P450 2C9, sequence (P11712 whole entry): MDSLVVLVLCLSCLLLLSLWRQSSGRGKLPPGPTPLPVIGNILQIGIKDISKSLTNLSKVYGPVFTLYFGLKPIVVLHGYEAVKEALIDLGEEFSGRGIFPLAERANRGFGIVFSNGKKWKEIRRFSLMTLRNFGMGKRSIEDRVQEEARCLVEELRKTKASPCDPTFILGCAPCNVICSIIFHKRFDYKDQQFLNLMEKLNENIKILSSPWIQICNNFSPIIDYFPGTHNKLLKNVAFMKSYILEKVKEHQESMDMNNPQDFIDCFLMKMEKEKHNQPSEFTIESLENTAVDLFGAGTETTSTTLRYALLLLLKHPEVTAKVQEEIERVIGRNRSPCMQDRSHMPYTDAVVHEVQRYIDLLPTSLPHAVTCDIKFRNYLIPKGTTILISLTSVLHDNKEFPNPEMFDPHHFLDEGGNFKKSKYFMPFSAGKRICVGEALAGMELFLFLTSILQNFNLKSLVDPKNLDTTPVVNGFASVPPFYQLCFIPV

Usually EC50 stands for the concentration giving half of the maximal effect. On to `Cc1nc(Sc2ccc(Br)cc2)c(C#N)c(C)c1[N+](=O)[O-]`, for which the EC50 in [1] is 125 µM (active). On to `O=C(c1ccccc1)N1CCN2C(=O)c3ccccc3C12c1ccc(Cl)cc1` (configuration not stated), for which the EC50 in [2] is > 120 µM (not active); in the test on H4, 15.4 µM (active); in test [3], 34.9 µM (active). Consider `CSc1ccc(Cl)c(C(=O)OCC(=O)N(C)CCC#N)c1`, for which the EC50 in test [1] was > 260 µM (inactive). For the molecule `COc1ccc(C(=O)N(C)CC(O)c2ccccc2)cc1OC1CCN(C(C)=O)CC1` (configuration not stated), the EC50 in test [1] is > 260 µM (inactive).

Broadly, the AC50 is the midpoint of the concentration-response curve, whichever way the signal moves. As for `CN1CC[C@@]2(CCN3CCc4c(oc5ccccc45)[C@@H]3C2)N(C)C1=O`, the AC50 on Cytochrome P450 2D6 was 31.6 µM (inconclusive); on Cytochrome P450 3A4, 12.6 µM (inconclusive).

For the molecule `OCCN(Cc1ccccc1)Cc1cccc(Cl)c1Cl`, on Cytochrome P450 2D6, the AC50 was 1.58 µM (inconclusive). For the same molecule, the EC50 in [4] was > 195 µM (not active).

With `C[C@H](N)Cc1c[nH]c2ccc(O)cc12`, the AC50 on Cytochrome P450 2D6 was 15.8 µM (inconclusive) and 39.8 µM (inconclusive). Turning to `Cc1[nH]c2ccccc2c1C(=O)/C=C/c1ccccc1Cl`, the EC50 is 7.39 µM (active) in [2] and 10.1 µM (active) in the test on H4. For the molecule `CCOC(=O)/C=C/C(=O)N1CCc2ccccc21`, the EC50 in test [1] was 24.7 µM (active). `CC(C)OC(=O)c1cccnc1N1CCN(c2cccc(Cl)c2)CC1`: the figures for the EC50 (on Streptokinase A; in the test with Streptococcus; in test [5]) were 19.3 µM (active), > 150 µM (not active) and 20.3 µM (active), respectively. `Cc1ccc(NC(=O)c2c(Cl)n(C)c3ccccc23)cc1`: the EC50 in [1] was 31.5 µM (active). Consider `N#C/C(=C\c1cn(Cc2ccccc2)c2ccccc12)C(=O)NCc1ccco1`, for which, in test [1], the EC50 is 35.6 µM (active).

By IC50 is commonly meant the concentration needed to halve the response being measured. Consider `Fc1ccc(-c2nc(-c3cnccn3)no2)c(Cl)c1`, for which the EC50 in test [1] is > 260 µM (inactive). In addition, the IC50 on Protein skinhead-1 is > 100 µM (inactive).

`C=CCSc1ncc(-c2ccccc2)cn1`: the EC50 in [2] was 25.3 µM (active); in the test on H4, 24.5 µM (active); in [3], 16 µM (active). In addition, at Protein skinhead-1, the IC50 was 11.4 µM (active). Regarding `CCOc1ccc(CN(C)C(=O)CNC(=O)c2ccc3ccccc3c2)cc1OC`, the EC50 in [1] is > 260 µM (inactive).

As for `COc1ccccc1CCn1c(=O)c(-c2ccccc2)nc2cncnc21`, the AC50 on Cytochrome P450 2D6 was 12.6 µM (inconclusive). Consider `COc1cccc(Cn2c(=O)c(-c3ccc(Cl)cc3)nc3cnc(N4CCNCC4)nc32)c1`, for which the AC50 at Cytochrome P450 2D6 was 39.8 µM (inconclusive); on Cytochrome P450 3A4, 15.8 µM (inconclusive). For the molecule `Cn1ccnc1CN1CCCCC1C(=O)Nc1ccc(Oc2cccnc2)cc1` (configuration not stated), the EC50 (in test [2]; in the test on H4; in [3]) was > 120 µM (not active) in each case. In the case of `O=C(COc1ccc(Cl)cc1)NC1CCSC1=O` (configuration not stated), in test [6], the EC50 was > 160 µM (inactive). Turning to `N=C(c1ccc2ccccc2c1)c1ccccc1Cc1ccccc1`, the AC50 on Cytochrome P450 2C9 is 7.94 µM (inconclusive); at Cytochrome P450 2D6, 3.16 µM (inconclusive); on Cytochrome P450 1A2 it was 0.501 µM (inconclusive). Consider `CCCCCCN(C(=O)CCCN1C(=O)NC(c2ccc(-c3ccccc3)cc2)C(C(=O)OCc2ccccc2)=C1C)C(C)C(=O)NCCCC` (configuration not stated), for which the AC50 on Paired box protein Pax-8 is 12.2 µM (active).

In the case of `N#Cc1ccc2nc(-c3ccc(CN4CCC(n5c(O)nc6ccccc65)CC4)cc3)c(-c3ccccc3)nc2c1`, on Paired box protein Pax-8, the AC50 is 8.95 µM (active). Same read-out and setting: next, `Cc1ccc(S(=O)(=O)N(C)C[C@H]2Oc3ccc(NC(=O)Cc4ccccc4)cc3C(=O)N([C@H](C)CO)C[C@@H]2C)cc1`: 29.8 µM (active); `C[C@@H]1CCCCO[C@@H](CN(C)Cc2ccc(Cl)c(Cl)c2)[C@H](C)CN([C@H](C)CO)C(=O)c2cc(NC(=O)Nc3ccc(C(F)(F)F)cc3)ccc2O1`: 2.39 µM (active); `C[C@@H]1CCCCO[C@H](CN(C)Cc2ccccc2)[C@H](C)CN([C@H](C)CO)C(=O)c2cc(NC(=O)Nc3ccc(C(F)(F)F)cc3)ccc2O1`: 5.05 µM (active).

In the case of `Cc1ccc(S(=O)(=O)N/N=C2/CC(c3ccccc3)Oc3ccccc32)cc1[N+](=O)[O-]` (configuration not stated), the EC50 was 15.9 µM (active) in [2], 13.8 µM (active) in the test with H4 and > 120 µM (not active) in test [3]. `CCOC(=O)c1cc2c(=O)n3ccccc3nc2n(CCOC)/c1=N\C(=O)c1ccncc1`: in test [6], the EC50 was 115 µM (active). With `COCCC/N=C(\c1ccco1)n1c(=S)nc(-c2ccco2)n(CCCOC)c1=S`, the figures for the EC50 (in [2]; in the test with H4; in test [3]) were 11.9 µM (active), > 120 µM (not active) and 11.6 µM (active), respectively. Regarding `CCCC(=O)O/N=C(\c1ccccc1)c1ccncc1`, the EC50 in test [1] is > 260 µM (inactive). Consider `Cc1nn(-c2ccccc2)c(Cl)c1/C=N\NC(=O)c1cnccn1`, for which the EC50 was 23.6 µM (active) in [2], 15.3 µM (active) in the test on H4 and 14 µM (active) in [3]. Consider `C/C(=N\NC(=O)c1cc2ccccc2cc1O)c1ccc2c(c1)OCO2`, for which the EC50 at Streptokinase A is 6.65 µM (active); in the test with Streptococcus it was 21.9 µM (active); in [5] it was 3.73 µM (active). As a reminder, the CC50 is the concentration at which the toxic effect on the cells reaches its halfway point. On to `N=C(N)NC(=O)c1nc(Cl)c(N2CCCCCC2)nc1N` [N,N-HEXAMETHYLENEAMILORIDE], for which the AC50 at Cytochrome P450 2D6 is 39.8 µM (inconclusive). For the same molecule, the CC50 in test [7] was 10.5 µM (active).

For the origin of these results see ChEMBL document CHEMBL1201862, “PubChem BioAssay data set” (2004).
